Laboratory results as given in patent US10555986B2, “Dietary supplement derived from natural prodcuts by hot melt extrusion (HME) processing” (INSTITUTO DE CAPACITACIÓN E INVESTIGACIÓN DEL PLÁS, priority 2017, dated 2020).

Assays:
[1] = release profile of (−)-Epicatechin, 2 hour in medium pH 1.2 and 2 more hours in medium pH 6.8, at 37° C.; assay type: physicochemical
Description: Releases for EXAMPLES I TO V.
FIG. 22 features release profile of (−)-Epicatechin at 2 hour in a medium with pH of 1.2 and 2 more hours in a medium with pH of 6.8, at 37° C. Releases for examples X to XIII with a particle size distribution between 250 μm and 425 μm (Mesh 40); and particle size distribution between 180 μm and 250 μm (Mesh 60).

[2] = relative to mannitol; background statement; cited from earlier work
[3] = release profile of (−)-Epicatechin in artificial saliva at pH 6.2 and 23° C.; assay type: physicochemical; details: artificial saliva pH 6.2, 23° C.
Description: FIG. 20 describes the release profile of (−)-Epicatechin in artificial saliva at pH 6.2 and 23° C. for examples X to XIII with a particle size distribution between 250 μm and 425 μm (Mesh 40).
FIG. 21 illustrates the release profile of (−)-Epicatechin in artificial saliva at pH 6.2 and 23° C. for EXAMPLE X to XIII with a particle size distribution between 180 μm and 250 μm (Mesh 60).

[4] = after permanent coronary occlusion; background statement; cited from earlier work
[5] = background statement; cited from earlier work

% release ([1]; 1 h, medium pH 1.2, 37° C.): 98.59%
release profile percentages ([1]; 1 h, medium pH 1.2, 37° C., Table 13): 98.59%
release profile percentages ([1]; 1 h, medium pH 1.2, 37° C., Table 14): 98.59%
% release ([1]; 2 h, medium pH 1.2, 37° C.): 99.94%
release profile percentages ([1]; 2 h, medium pH 1.2, 37° C., Table 13): 99.94%
release profile percentages ([1]; 2 h, medium pH 1.2, 37° C., Table 14): 99.94%
% release ([1]; 3 h, 2 h pH 1.2 then medium pH 6.8, 37° C.): 100.22%
release profile percentages ([1]; 3 h, 2 h pH 1.2 then pH 6.8, 37° C., Table 13): 100.22%
release profile percentages ([1]; 3 h, 2 h pH 1.2 then pH 6.8, 37° C., Table 14): 100.22%
% release ([1]; 4 h, 2 h pH 1.2 then medium pH 6.8, 37° C.): 100.84%
release profile percentages ([1]; 4 h, 2 h pH 1.2 then pH 6.8, 37° C., Table 13): 100.84%
release profile percentages ([1]; 4 h, 2 h pH 1.2 then pH 6.8, 37° C., Table 14): 100.84%
% release ([3]; 30 s): 75.30%
release profile percentages ([3]; 30 s, Table 13): 75.30%
release profile percentages ([3]; 30 s, Table 14): 75.30%
% release ([3]; 60 s): 88.70%
release profile percentages ([3]; 60 s, Table 13): 88.70%
release profile percentages ([3]; 60 s, Table 14): 88.70%
% release ([3]; 120 s): 93.43%
release profile percentages ([3]; 120 s, Table 13): 93.43%
release profile percentages ([3]; 120 s, Table 14): 93.43%
SMILES: Oc1cc(O)c2c(c1)O[C@H](c1ccc(O)c(O)c1)[C@H](O)C2 [EPICATECHIN AT 90%, (−)-Epicatechin (2R,3R)]
quenches OH more effectively than mannitol [2]: 100 times
reduction in scar (infarct) size [4]: approximately 33%
oral bioavailability [5]: less than 5%
